Assay results published in patent publication US9085599B2, “2′allene-substituted nucleoside derivatives” (priority 2011, dated 2015).
Like-named read-outs stand apart in the source and are kept apart here.

Tests used:
[1] = system: HCV replicon RNA, genotype 1a (strain H77); assay: HCV replicon assay qRT-PCR, genotype 1a (Huh-1a7 replicon cell line); format: cell-based; details: Hepatitis C virus, read-out: 1a EC50
Source text: (§1) HCV replicon cell lines (kindly provided by R. Bartenschlager) isolated from colonies as described by Lohman et al. (Lohman et al. (1999) Science 285: 110-113, expressly incorporated by reference in its entirety) and used for all experiments. One of the HCV replicon cell lines (strain Con1, genotype 1b) has the nucleic acid sequence set forth in EMBL Accession No.: AJ242651, the coding sequence of which is from nucleotides 1801 to 8406. Another replicon cell line (strain H77, genotype 1a) was constructed as described by Yi et. al. (Yi et. al. (2004) Journal of Virology 78(15):7904-15). […]
(§2) EC50 values of single agent compounds were determined by HCV RNA detection using quantitative RT-PCR, according to the manufacturer's instructions, with a TAQMAN® One-Step RT-PCR Master Mix Reagents Kit (Cat#AB 4309169, Applied Biosystems) on an ABI Model 7500 thermocycler. EC50 values of combinations are similarly determined by HCV RNA detection using quantitative RT-PCR. The TAQMAN primers to use for detecting and quantifying HCV RNA obtained from Integrated DNA Technologies. HCV RNA is normalized to GAPDH RNA levels in drug-treated cells, which is detected and quantified using the Human GAPDH Endogenous Control Mix (Applied Biosystems, AB 4310884E). […] Chemical agent cytotoxicity is evaluated using an MTS assay according to the manufacturer's directions (Promega). […]

[2] = system: HCV replicon RNA, genotype 1b (strain Con1); assay: HCV replicon assay qRT-PCR, genotype 1b (SGR 11-7 replicon cell line); format: cell-based; details: Hepatitis C virus, read-out: 1b EC50
Source text: as §1, §2

| SMILES | EC50 ([1]; Genotype-1a replicon, HCV RNA by qRT-PCR normalized to GAPDH RNA) [µM] | EC50 ([2]; Genotype-1b replicon, HCV RNA by qRT-PCR normalized to GAPDH RNA) [µM] | EC50 [1] [µM] | EC50 [2] [µM] |
| --- | --- | --- | --- | --- |
| C=C=C[C@@]1(O)C(O)[C@@H](CO)O[C@H]1n1ccc(=O)[nH]c1=O (stereo partly shown) [Example 1] | > 10 | > 10 | – | – |
| C=C=C[C@@]1(O)C(O)[C@@H](COP(=O)(N[C@@H](C)C(=O)OC)Oc2cccc3ccccc23)O[C@H]1n1ccc(=O)[nH]c1=O (stereo partly shown) [Example 2] | – | – | 1 to 10 | 1 to 10 |
